Results from publication PMC3958129, “Enzyme kinetics and distinct modulation of the protein kinase N family of kinases by lipid activators and small molecule inhibitors” (Bioscience Reports, 2014).
Read-outs that look alike come from different tables or passages of the source.

Legend:
PKN3 [1] = target: T1, PKN3 (Homo sapiens, UniProt Q6P5Z2); assay: PKN3 kinase inhibition, off-chip mobility shift assay; assay type: biochemical; design: Full-length, FLAG-tagged human PKN1, PKN2 and PKN3 were expressed in mammalian HEK-293 cells
Experimental: (§4) The activity of all PKN proteins was monitored through the use of a highly sensitive off-chip mobility shift assay utilizing a LabChip EZ Reader II instrument (Caliper Life Sciences/PerkinElmer); this assay format has been described elsewhere [31]. […] Peptide concentration was adjusted according to purity and peptide content. For inhibition studies, the inhibitor was pre-incubated with enzyme for 15 min at room temperature. All reactions were initiated with ATP and conducted at room temperature (~22°C).
(§5) All data were globally fit using non-linear regression and GraphPad Prism software. Non-linear data were converted to double-reciprocal Lineweaver–Burk plots for visual and presentation purposes only. Kinetic data were analysed in duplicate, and each plot is representative of at least two independent experiments.
(§6) For enzyme inhibition studies, data were fit to eqns (2)–(4) for competitive, non-competitive and uncompetitive inhibition, respectively: (2) v=Vmax[S]/[S]+KM1+[I]/Ki (3) v=Vmax[S]/([S]+KM)1+[I]/Ki (4) v=Vmax[S]/[S]1+[I]/αKi+KM
(§7) For eqns (1)–(4), v is measured velocity, Vmax is maximum velocity, [ATP], [Pep] and [S] are concentrations of ATP, peptide and varied substrate, respectively; Kia is the equilibrium dissociation constant of ATP, KM,ATP, KM,Pep and KM are the Michaelis–Menten constants for ATP, peptide and the varied substrate, respectively. [I] is the inhibitor concentration, α describes the preference for inhibitor binding to either free or substrate bound enzyme and Ki is the inhibitor equilibrium dissociation constant.

PKN1 [2] = target: T2, PKN1 (Homo sapiens, UniProt Q16512); assay: PKN1 kinase inhibition, off-chip mobility shift assay; assay type: biochemical; design: Full-length, FLAG-tagged human PKN1, PKN2 and PKN3 were expressed in mammalian HEK-293 cells; host or cells: HEK-293 (transient transfection, pcDNA4/TO)
Experimental: as §4, §5, §6, §7

PKN2 [3] = target: T3, PKN2 (Homo sapiens, UniProt Q16513); assay: PKN2 kinase inhibition, off-chip mobility shift assay; assay type: biochemical; design: Full-length, FLAG-tagged human PKN1, PKN2 and PKN3 were expressed in mammalian HEK-293 cells; host or cells: HEK-293 (transient transfection, pcDNA4/TO)
Experimental: as §4, §5, §6, §7

PKN1, PKN2 and PKN3 = assay: PKN isoform selectivity from Ki values (Ki ratio); assay type: biochemical, human; conditions: for Isoform selectivity: isoform(s) preferred, defined as ~10-fold or greater Ki ratio
Description: The activity of all PKN proteins was monitored through the use of a highly sensitive off-chip mobility shift assay utilizing a LabChip EZ Reader II instrument (Caliper Life Sciences/PerkinElmer); this assay format has been described elsewhere [31]. […] The likely site of phosphorylation is underlined, as determined through comparison with the published phosphorylation consensus sequence for PKN1 and PKN3 substrates [27]. […] Peptide concentration was adjusted according to purity and peptide content. For inhibition studies, the inhibitor was pre-incubated with enzyme for 15 min at room temperature. All reactions were initiated with ATP and conducted at room temperature (~22°C).

PKN3 [4] = target: T1, PKN3; assay: Lipid activation of PKN3 kinase activity, off-chip mobility shift assay; assay type: biochemical; design: Full-length, FLAG-tagged human PKN1, PKN2 and PKN3 were expressed in mammalian HEK-293 cells; conditions: increase in initial rate; saturating ATP (500 μM), 3 μM peptide, 3 nM PKN3
Experimental: (§1) Lipids were supplied as a solid powders, ethanol, or chloroform solutions. All solids were dissolved directly into assay buffer and briefly water bath sonicated at room temperature for 10 min. Lipids supplied as solutions in organic solvent were dried under a gentle stream of nitrogen, resuspended in assay buffer, and similarly sonicated. All lipids were prepared fresh daily.
(§2) The activity of all PKN proteins was monitored through the use of a highly sensitive off-chip mobility shift assay utilizing a LabChip EZ Reader II instrument (Caliper Life Sciences/PerkinElmer); this assay format has been described elsewhere. Kinase activity was monitored through the phosphorylation of a 5-FAM-labelled PKN substrate peptide found through Pfizer in-house optimization efforts and derived from the amino acid sequence of GSK3α (accession no. AAH51865.1) with the following sequence: 5-FAM-C6-[…]-NH2. The likely site of phosphorylation is underlined, as determined through comparison with the published phosphorylation consensus sequence for PKN1 and PKN3 substrates. Reaction buffer contained 25 mM Tris, pH 8.0, 5 mM MgCl2, 0.002% CHAPS and 2 mM DTT, with indicated protein, ATP and peptide concentrations. Peptide concentration was adjusted according to purity and peptide content. For inhibition studies, the inhibitor was pre-incubated with enzyme for 15 min at room temperature. All reactions were initiated with ATP and conducted at room temperature (~22°C). Reactions were terminated by the addition of EDTA, pH 8.0, at a final concentration of 25 mM. All reaction rates were determined to be linear with respect to time and enzyme concentration where no more than 20% of peptide substrate had been converted to product. Aliquots of each reaction were transferred in duplicate to a 384-well plate and analysed on a LabChip EZ Reader II with separation buffer containing 100 mM Hepes, pH 7.5, 0.015% Brij-35, 1 mM EDTA, 0.1% CR3 coating reagent, 1×CR8 coating reagent and 5% DMSO, with the following settings: downstream voltage: −500 V, upstream voltage: −2300 V, base pressure: −0.5 psi; screen pressure: −1.7 psi.
Ki values for representative inhibitors were determined by fitting initial reaction velocities to eqn (2) for competitive inhibition using the method of non-linear least-squares using GraphPad Prism. Turnover number (kcat) was calculated by normalizing Vmax values for enzyme concentration.
(§3) Figure 2 PKN responses to lipid activators in biochemical assays Lipids were prepared as described under the Experimental section, and kinase activity of PKN isoforms was measured using off-chip mobility shift assay described in the Methods section. Each lipid was titrated in the presence of 1 nM, 5 nM and 3 nM PKN1–3, respectively, 3 μM peptide and 500 μM ATP. vi is the initial rate at each concentration of lipid activator and vo is the initial rate in the absence of lipid.

PKN1 [5] = target: T2, PKN1; assay: Lipid activation of PKN1 kinase activity, off-chip mobility shift assay; assay type: biochemical; design: Full-length, FLAG-tagged human PKN1, PKN2 and PKN3 were expressed in mammalian HEK-293 cells; host or cells: HEK-293 (transient transfection, pcDNA4/TO); conditions: saturating ATP (500 μM), 3 μM peptide, 1 nM PKN1; for PKN1 Maximal fold activation: increase in initial rate; for EC50: lipid activator
Experimental: as §1
as §2, with “psi. […]” for “psi.”
as §3

PKN2 [6] = target: T3, PKN2; assay: Lipid activation of PKN2 kinase activity, off-chip mobility shift assay; assay type: biochemical; design: Full-length, FLAG-tagged human PKN1, PKN2 and PKN3 were expressed in mammalian HEK-293 cells; host or cells: HEK-293 (transient transfection, pcDNA4/TO); conditions: for PKN2 Maximal fold activation: increase in initial rate; for effect on PKN2 kinase activity: in words, saturating ATP
Experimental: as §1
as §2, with “psi. […]” for “psi.”
as §3

[7] = absence of lipids, fit to competitive inhibition, ±S.D., n=2, read-out: PKN3, Ki
[8] = absence of lipids, fit to competitive inhibition, ±S.D., n=2, read-out: PKN2, Ki
[9] = absence of lipids, fit to competitive inhibition, ±S.D., n=2, read-out: PKN1, Ki
[10] = saturating ATP (500 μM), 3 μM peptide, 5 nM PKN2

T1 sequence (Q6P5Z2 whole entry): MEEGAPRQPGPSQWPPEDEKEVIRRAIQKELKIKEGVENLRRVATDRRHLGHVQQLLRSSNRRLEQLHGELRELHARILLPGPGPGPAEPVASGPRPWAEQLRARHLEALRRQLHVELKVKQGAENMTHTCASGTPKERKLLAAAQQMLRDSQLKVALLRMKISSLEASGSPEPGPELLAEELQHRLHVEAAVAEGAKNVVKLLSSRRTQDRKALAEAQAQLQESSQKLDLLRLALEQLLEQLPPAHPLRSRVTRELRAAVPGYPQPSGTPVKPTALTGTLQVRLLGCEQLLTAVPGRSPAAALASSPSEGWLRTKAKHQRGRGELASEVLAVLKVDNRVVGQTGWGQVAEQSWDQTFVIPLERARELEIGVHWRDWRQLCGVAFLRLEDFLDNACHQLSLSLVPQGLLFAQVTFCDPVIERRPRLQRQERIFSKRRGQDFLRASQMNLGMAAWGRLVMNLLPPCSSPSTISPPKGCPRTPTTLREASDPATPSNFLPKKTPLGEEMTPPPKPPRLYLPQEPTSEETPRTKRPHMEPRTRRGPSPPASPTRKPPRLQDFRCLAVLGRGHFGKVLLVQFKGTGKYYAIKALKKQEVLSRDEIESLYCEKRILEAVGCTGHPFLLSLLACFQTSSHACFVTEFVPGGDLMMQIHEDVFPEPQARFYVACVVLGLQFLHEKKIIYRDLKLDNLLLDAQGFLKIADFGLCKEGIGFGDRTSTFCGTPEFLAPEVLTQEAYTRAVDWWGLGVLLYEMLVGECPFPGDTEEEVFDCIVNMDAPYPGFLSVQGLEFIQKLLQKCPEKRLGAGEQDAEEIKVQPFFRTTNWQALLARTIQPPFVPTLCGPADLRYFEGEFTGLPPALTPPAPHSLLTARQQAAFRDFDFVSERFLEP
T2 sequence (Q16512 whole entry): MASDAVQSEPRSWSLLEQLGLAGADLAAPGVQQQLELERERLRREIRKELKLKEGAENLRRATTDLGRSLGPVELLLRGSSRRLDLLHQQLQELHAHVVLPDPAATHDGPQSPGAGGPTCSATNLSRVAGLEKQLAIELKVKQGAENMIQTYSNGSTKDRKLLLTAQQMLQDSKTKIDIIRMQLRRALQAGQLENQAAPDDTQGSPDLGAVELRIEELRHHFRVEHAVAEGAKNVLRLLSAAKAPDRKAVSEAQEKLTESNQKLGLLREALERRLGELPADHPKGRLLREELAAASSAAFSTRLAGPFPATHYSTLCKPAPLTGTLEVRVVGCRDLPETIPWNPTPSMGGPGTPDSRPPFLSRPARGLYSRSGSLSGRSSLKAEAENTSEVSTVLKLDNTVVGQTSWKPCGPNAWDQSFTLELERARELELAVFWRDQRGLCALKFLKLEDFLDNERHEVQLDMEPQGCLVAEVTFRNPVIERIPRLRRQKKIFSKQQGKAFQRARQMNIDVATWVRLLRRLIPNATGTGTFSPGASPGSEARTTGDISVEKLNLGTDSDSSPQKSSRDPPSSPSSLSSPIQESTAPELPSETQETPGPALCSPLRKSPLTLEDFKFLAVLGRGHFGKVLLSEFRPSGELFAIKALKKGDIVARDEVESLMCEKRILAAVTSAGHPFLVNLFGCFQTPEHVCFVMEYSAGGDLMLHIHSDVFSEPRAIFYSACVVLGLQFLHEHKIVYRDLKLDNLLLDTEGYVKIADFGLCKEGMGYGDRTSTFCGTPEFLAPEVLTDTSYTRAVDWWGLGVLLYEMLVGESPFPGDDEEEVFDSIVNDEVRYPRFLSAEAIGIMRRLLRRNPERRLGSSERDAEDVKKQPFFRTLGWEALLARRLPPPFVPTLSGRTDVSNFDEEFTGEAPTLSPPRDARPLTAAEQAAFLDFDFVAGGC
T3 sequence (Q16513 whole entry, canonical isoform): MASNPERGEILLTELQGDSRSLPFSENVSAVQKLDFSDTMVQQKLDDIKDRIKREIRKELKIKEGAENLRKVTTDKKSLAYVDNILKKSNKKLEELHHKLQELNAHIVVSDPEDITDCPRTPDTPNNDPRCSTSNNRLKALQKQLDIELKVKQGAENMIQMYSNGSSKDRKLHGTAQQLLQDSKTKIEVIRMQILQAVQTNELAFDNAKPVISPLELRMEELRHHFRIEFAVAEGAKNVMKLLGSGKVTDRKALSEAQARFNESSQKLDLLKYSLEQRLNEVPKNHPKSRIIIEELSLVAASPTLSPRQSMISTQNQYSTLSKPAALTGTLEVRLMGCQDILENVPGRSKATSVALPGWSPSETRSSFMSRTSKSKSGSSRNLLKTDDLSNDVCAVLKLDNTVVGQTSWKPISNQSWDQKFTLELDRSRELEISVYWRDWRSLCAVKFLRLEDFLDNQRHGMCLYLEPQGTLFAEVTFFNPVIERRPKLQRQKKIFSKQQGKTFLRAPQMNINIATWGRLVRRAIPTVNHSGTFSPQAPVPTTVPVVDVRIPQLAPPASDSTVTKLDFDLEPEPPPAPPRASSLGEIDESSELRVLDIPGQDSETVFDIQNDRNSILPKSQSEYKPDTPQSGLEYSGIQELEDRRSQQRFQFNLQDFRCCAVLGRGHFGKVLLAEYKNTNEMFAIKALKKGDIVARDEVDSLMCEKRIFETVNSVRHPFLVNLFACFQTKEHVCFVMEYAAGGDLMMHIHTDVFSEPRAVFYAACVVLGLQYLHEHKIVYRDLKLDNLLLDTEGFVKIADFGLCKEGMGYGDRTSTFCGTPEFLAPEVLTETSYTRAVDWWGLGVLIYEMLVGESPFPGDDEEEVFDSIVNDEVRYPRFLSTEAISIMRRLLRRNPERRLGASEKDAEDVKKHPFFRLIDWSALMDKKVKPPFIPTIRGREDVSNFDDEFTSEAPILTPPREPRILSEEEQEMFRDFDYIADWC

Compound | Ki (PKN3 [1]; [7]) | Ki (PKN2 [3]; [8]) | Ki (PKN1 [2]; [9]) | PKN3 Maximal fold activation (PKN3 [4]) | PKN1 Maximal fold activation (PKN1 [5]) | PKN2 Maximal fold activation (PKN2 [6]; [10]) | also measured
Nc1ncnc2c1ncn2[C@@H]1O[C@H](COP(=O)(O)OP(=O)(O)O)[C@@H](O)[C@H]1O [ADP] | – | – | – | – | – | – | Ki (PKN3 [1]; product inhibition, competitive with respect to ATP, 5 μM peptide, 7.8–250 μM ATP, 4 nM enzyme, 5 μM arachidonic acid, read-out: PKN3 Ki): 69 ± 5 µM; Ki (PKN3 [1]; product inhibition, non-competitive with respect to peptide, 50 μM ATP, 0.9–30 μM peptide, 4 nM enzyme, 5 μM arachidonic acid, read-out: PKN3 Kiapp): 320 ± 12 µM; Ki (PKN1 [2]; product inhibition, competitive with respect to ATP, 3 μM peptide, 31–1000 μM ATP, 1 nM enzyme, 100 μM arachidonic acid, read-out: PKN1 Ki): 53 ± 4 µM; Ki (PKN1 [2]; product inhibition, non-competitive with respect to peptide, 50 μM ATP, 0.3–10 μM peptide, 1 nM enzyme, 100 μM arachidonic acid, read-out: PKN1 Kiapp): 170 ± 14 µM; Ki (PKN2 [3]; product inhibition, competitive with respect to ATP, 2 μM peptide, 6–200 μM ATP, 2 nM enzyme, 100 μM arachidonic acid, read-out: PKN2 Ki): 26 ± 4 µM; Ki (PKN2 [3]; product inhibition, non-competitive with respect to peptide, 20 μM ATP, 0.3–10 μM peptide, 2 nM enzyme, 100 μM arachidonic acid, read-out: PKN2 Kiapp): 65 ± 5 µM
CO[C@@H]1[C@H](N(C)C(=O)c2ccccc2)C[C@H]2O[C@]1(C)n1c3ccccc3c3c4c(c5c6ccccc6n2c5c31)C(=O)NC4 [Compound 1, PKC412] | < 0.0002 µM | – | – | – | – | – | –
Cn1cc(C2=C(c3cn(CCCSC(=N)N)c4ccccc34)C(=O)NC2=O)c2ccccc21 [Compound 2, Ro 31-8220] | 0.17 ± 0.01 µM | 0.017 ± 0.002 µM | – | – | – | – | –
CN(C)CCCn1cc(C2=C(c3c[nH]c4ccccc34)C(=O)NC2=O)c2ccccc21 [Compound 3, GF 109203X] | 2.3 ± 0.5 µM | 0.09 ± 0.02 µM | 0.079 ± 0.008 µM | – | – | – | selectivity for PKN1/2 over PKN3 (PKN1, PKN2 and PKN3; from Ki values): at least 25 fold; Isoform selectivity (PKN1, PKN2 and PKN3): PKN1/2
O=C1Nc2ccc3ncsc3c2/C1=C/c1c[nH]cn1 [Compound 5, PKR inhibitor] | 0.24 ± 0.03 µM | 0.041 ± 0.007 µM | 0.41 ± 0.05 µM | – | – | – | Isoform selectivity (PKN1, PKN2 and PKN3): PKN2
Nc1nc(Nc2ccc(S(N)(=O)=O)cc2)nn1C(=S)Nc1c(F)cccc1F [Compound 6, CDK1/2 inhibitor III] | 0.034 ± 0.002 µM | 0.012 ± 0.002 µM | 0.22 ± 0.02 µM | – | – | – | selectivity for PKN2 over PKN1 (PKN1, PKN2 and PKN3; from Ki values): 18 fold; selectivity for PKN2 over PKN3 (PKN1, PKN2 and PKN3; in words): only minimal selectivity; Isoform selectivity (PKN1, PKN2 and PKN3): PKN2/3
Oc1ccc(-c2nc(-c3ccncc3)c(-c3ccc(F)cc3)[nH]2)cc1 [Compound 9, SB-202190] | 0.004 ± 0.0003 µM | 2.3 ± 0.4 µM | > 5 µM | – | – | – | –
CNCCNS(=O)(=O)c1cccc2cnccc12 [Compound 10, H-8] | 0.01 ± 0.002 µM | 1.8 ± 0.3 µM | 1.8 ± 0.3 µM | – | – | – | –
CN(C(Cc1ccc(OS(=O)(=O)c2cccc3cnccc23)cc1)C(=O)N1CCN(c2ccccc2)CC1)S(=O)(=O)c1cccc2cnccc12 (stereo not shown) [Compound 11, KN62] | – | > 5 µM | 2.9 ± 0.7 µM | – | – | – | –
O=S(=O)(c1cccc2cnccc12)N1CCCNCC1 [Compound 12, HA-1077] | – | – | 0.8 ± 0.1 µM | – | – | – | –
CCCCCCCC(=O)OC[C@H](CO)OC(=O)CCCCCCC [DAG, 1,2-dioctanoyl-sn-glycerol] | – | – | – | <2 fold | <2 fold | <2 fold | –
H-PRLQRQERIFSKRRG-OH [PKN3-PRL] | – | – | – | – | – | – | Ki (PKN3 [1]; competitive with respect to peptide substrate, 250 μM ATP, 0.9–30 μM peptide, 4 nM enzyme, 5 μM arachidonic acid, read-out: PKN3 Ki with respect to peptide substrate): 5.4 µM; PKN3 αKi with respect to ATP (PKN3 [1]; uncompetitive with respect to ATP, 6 μM peptide, 7.8–250 μM ATP, 4 nM enzyme, 5 μM arachidonic acid): 1.3 µM

Now from value to compound, other results behind:

Ki (PKN3 [1]; [7]) | Ki (PKN2 [3]; [8]) | Ki (PKN1 [2]; [9]) | PKN3 Maximal fold activation (PKN3 [4]) | PKN1 Maximal fold activation (PKN1 [5]) | PKN2 Maximal fold activation (PKN2 [6]; [10]) | Compound | also measured
– | – | – | <2 fold | <2 fold | <2 fold | O=P(O)(O)O[C@@H]1[C@H](O)[C@H](O)[C@@H](OP(=O)(O)O)[C@H](OP(=O)(O)O)[C@H]1O [IP3, D-myo-inositol-1,3,5-triphosphate] | –
– | – | – | <2 fold | 15 fold | <2 fold | Phosphatidylserine | PKN1 Maximal fold activation (PKN1 [5]; listed as phosphatidylserine): 10–16 fold; EC50 (PKN1 [5]): 3 ± 1 µM; effect on PKN2 kinase activity (PKN2 [6]): not affected
– | – | – | <2 fold | 11 fold | <2 fold | phosphatidylinositol-3,4,5-triphosphate [PIP3] | EC50 (PKN1 [5]): 2 ± 1 µM; effect on PKN2 kinase activity (PKN2 [6]): not affected
– | – | – | <2 fold | 14 fold | 7 fold | phosphatidylinositol-4,5-bisphosphate [PIP2] | EC50 (PKN1 [5]): 5 ± 1 µM; effect on PKN2 kinase activity (PKN2 [6]): increased; EC50 (PKN2 [6]; lipid activator, saturating ATP (500 μM), 3 μM peptide, 5 nM PKN2): 2 ± 1 µM
